Experimental data as given in the NIST ThermoML archive (doi:10.1021/je800404f).
± gives the expanded uncertainty stated by the source.

Assay: refractive index (Na D-line) (dimensionless)
Settings: 295.1 K; 101.33 kPa; Liquid; Standard Abbe refractometry

**Q.** Which refractive index does the source give for `CC#N` [acetonitrile] here?
**A.** 1.3441 ± 0.0024

**Q.** With `CCCCCCCCCO` [nonan-1-ol] as the compound, how does the refractive index read?
**A.** 1.4322 ± 0.0024

**Q.** For `O` [water], which refractive index is on record?
**A.** 1.333 ± 0.0024

**Q.** With `CCCCCCC(=O)O` [heptanoic acid] as the compound, how does the refractive index read?
**A.** 1.4175 ± 0.0024
